# Laboratory results as given in patent US20260015333A1, “COMPOUNDS AND METHODS FOR INHIBITION OF THE EVOLUTION OF […]” (priority 2022, published 2026).
# Assays:
# Mfd = Mfd (Salmonella typhimurium, UniProt Q8ZQ01); experiment: Translocase assay (in vivo luminescence reporter system); format: cell-based, S. typhimurium
# Source text: FIGS. 1A-1C depict an in vivo high throughput screen identifing lead compound ARM-1. FIG. 1A is a schematic of in vivo screen design. In the upper panel, when Mfd is present, RNAP complexes stalled at the lacI-bound operator sequence are quickly removed, resulting in little to no transcription of the lux operon and low luminescence output. In the lower panel, when Mfd is either absent or inhibited, RNAP complexes stalled at the operator are not removed and are able to proceed during temporary dissociation of LacI, resulting in relatively high levels of luminescent output. FIG. 1B depicts the structure of the compound, ARM-1. […] Relative luminescence is normalized to no compound, solvent control, and 0.5% DMSO. *p<0.05 ***p<0.001.
# In order to determine if Mfd's activity and/or RNAP termination function could be inactivated through the use of a small molecule, a high-throughput in vivo screen of roughly 250,000 compounds was conducted. […] The reporter system consists of one plasmid with a lac operator (lacO) encoded directly upstream of the lux operon which expresses proteins that produce luciferase, leading to easily detectable luminescence. […] The LacI protein which binds to lacO is a barrier to transcription; RNAP is unable to readily pass the bound protein and therefore, the transcription machinery stalls. […]
# S. aureus = experiment: Minimum inhibitory concentration of ARM-1 alone; format: cell-based; details: Staphylococcus aureus, constant for 196 hours of exposure
# Source text: (§1) FIGS. 4A-4C depict how ARM-1 inhibits the evolution of antibiotic resistance. FIG. 4A depicts the minimum inhibitory concentration of ARM-1 in E. coli and S. aureus. FIGS. 4B-4C depict the evolution of indicated species against (FIG. 4B) rifampicin and (FIG. 4C) trimethoprim in the presence of ARM-1. Heatmaps show median MIC over time. Concentrations are indicated to the right of each plot. Each strain and antibiotic is the result of at least 12 biological replicates. Concentration of ARM-1 used against L. monocytogenes, P. aeruginosa, and S. aureus is 100 μM. Concentration of ARM-1 used against S. typhimurium is 50 μM. Populations of bacteria are grown overnight in a series of increasing antibiotic concentrations, with or without ARM-1 present. The following day, the population from the highest tolerated concentration is re-challenged with higher concentrations of antibiotic. […]
# (§2) Next, the effect of ARM-1 on the evolution of antibiotic resistance was examined. […] Using an assay previously developed, the impact of ARM-1 was assessed on resistance development across diverse pathogens and in response to multiple classes of antibiotics. […]
# (§3) Evolution experiments were performed for the indicated strains. […] Optical densities were subsequently measured in an Epoch2 microplate spectrophotometer (BioTek). […]
# E. coli = experiment: Minimum inhibitory concentration of ARM-1 alone; format: cell-based; details: Escherichia coli, constant for 196 hours of exposure
# Source text: as §1, §2, §3
# Sequence of Mfd (Q8ZQ01 entry or part of it): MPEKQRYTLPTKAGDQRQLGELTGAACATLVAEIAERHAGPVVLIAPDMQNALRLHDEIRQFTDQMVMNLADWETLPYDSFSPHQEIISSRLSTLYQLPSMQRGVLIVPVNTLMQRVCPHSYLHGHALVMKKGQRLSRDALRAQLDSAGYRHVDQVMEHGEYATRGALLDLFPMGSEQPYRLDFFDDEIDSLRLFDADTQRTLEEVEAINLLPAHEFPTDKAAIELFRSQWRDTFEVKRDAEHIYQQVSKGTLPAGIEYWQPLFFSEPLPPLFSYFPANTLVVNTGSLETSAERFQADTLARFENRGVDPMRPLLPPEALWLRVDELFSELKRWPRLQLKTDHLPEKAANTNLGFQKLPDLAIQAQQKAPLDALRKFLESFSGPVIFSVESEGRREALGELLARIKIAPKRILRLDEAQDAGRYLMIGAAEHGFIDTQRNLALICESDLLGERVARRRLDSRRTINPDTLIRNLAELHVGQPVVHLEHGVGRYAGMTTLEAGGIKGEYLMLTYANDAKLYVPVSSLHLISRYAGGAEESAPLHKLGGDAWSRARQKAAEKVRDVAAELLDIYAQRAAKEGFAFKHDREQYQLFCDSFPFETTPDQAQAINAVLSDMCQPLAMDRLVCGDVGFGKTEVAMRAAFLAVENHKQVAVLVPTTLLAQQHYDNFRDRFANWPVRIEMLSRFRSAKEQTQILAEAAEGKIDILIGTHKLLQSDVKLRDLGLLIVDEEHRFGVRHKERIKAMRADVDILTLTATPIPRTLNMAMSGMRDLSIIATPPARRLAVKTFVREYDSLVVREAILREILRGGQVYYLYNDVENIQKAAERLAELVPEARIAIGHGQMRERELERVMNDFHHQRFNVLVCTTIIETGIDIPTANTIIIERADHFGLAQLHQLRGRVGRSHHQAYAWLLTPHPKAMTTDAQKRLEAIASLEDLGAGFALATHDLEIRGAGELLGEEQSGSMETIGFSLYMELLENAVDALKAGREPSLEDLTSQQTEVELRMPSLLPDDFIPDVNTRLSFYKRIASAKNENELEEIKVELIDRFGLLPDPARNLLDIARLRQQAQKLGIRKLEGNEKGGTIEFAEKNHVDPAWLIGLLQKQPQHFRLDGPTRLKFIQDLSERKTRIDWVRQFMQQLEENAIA
smiles,measurement,setting,value
"Cc1cc(Br)ccc1-c1ccc(CNCCCN(C)C)o1 [ARM-1, N^1-((5-(4-bromo-2-methylphenyl)furan-2-yl)methyl)-N^3,N^3-dimethylpropane-1,3-diamine]",effect on luminescence in cells lacking Mfd,Mfd,no effect
same,MIC,S. aureus,400 µM
same,MIC,E. coli,400 µM
